The values that follow come from patent US8334110B2, “Detection of blood plasma amygdalin of dissipating blood stasis botanical” (Shanghai Sundise Chinese Medicine Technology Development …, priority 2007, dated 2012).

This data set is described as follows: UPLC/MS determination of blood plasma Amygdalin after administration of the body resistance-strengthening and blood stasis-dissipating botanical composition. The class given is in vivo. Particulars: blood plasma of mammals after drenched with body resistance-strengthening and blood stasis-dissipating (Fuzheng Huayu, FZHY) botanical composition; UPLC-MS, FIG. 1 (plasma taken 0.5 hours after administration). From the text: a. After the administration of the body resistance-strengthening and blood stasis-dissipating botanical composition to mammals, first add 2-5 mol/L phosphoric acid to the composition-containing mammalian blood plasma and mix to homogenize, the volumetric ratio of the blood plasma to phosphoric acid is 1:2-3, feed the same to a Waters Oasis HLB cartridge that has been activated by methanol and water, leach with water and 80-100% methanol and elute with 0.2-1% ammonia methanol, then dry through evaporation and enrich the eluent at 25-30° C., and re-dissolve the eluent with a mobile phase;
Chromatographic conditions: chromatographic column: Acquity UPLC BEH C18, 2.1×100 mm, mobile phase A: Water-Acetonitrile-Formic acid 95:5:0.1 v/v/v, mobile phase B: Acetomtrile-Formic acid 100:0.1 v/v; MS conditions: electrospray ionization (ESI) ion source, detection in the positive ion mode, and the mass scanning range m/z 150˜800.
The ESI ion source in said Step (2) employs detection in the positive ion mode; the desolvation gas flow rate is 440 L/h, the desolvation gas temperature is 300° C., the cone gas flow rate is 50 L/h, the ion source temperature is 100° C., the spray capillary voltage is 3800 V, the sampling cone voltage is 30 V, the extracting cone voltage is 2.00 V, and the lens voltage is 0.1 V. The mass scanning range is m/z 150˜800.
1. […]

Take `N#C[C@H](O[C@@H]1O[C@H](CO[C@@H]2O[C@H](CO)[C@@H](O)[C@H](O)[C@H]2O)[C@@H](O)[C@H](O)[C@H]1O)c1ccccc1` [Amygdalin]: the “Detection of Amygdalin in blood plasma” value is on record as “can be detected”.
